Measured values reported in PMC4014619, “Slc26a7 Chloride Channel Activity and Localization in Mouse Reissner’s Membrane Epithelium” (PLoS ONE, 2014).

Target: T1, Slc26a7 (Mus musculus, UniProt Q8R2Z3)
T1 construct: native full-length channel in Reissner's membrane epithelial cells (basolateral membrane); Slc26a7 knockout mice as control
T1 sequence (Q8R2Z3 1-656): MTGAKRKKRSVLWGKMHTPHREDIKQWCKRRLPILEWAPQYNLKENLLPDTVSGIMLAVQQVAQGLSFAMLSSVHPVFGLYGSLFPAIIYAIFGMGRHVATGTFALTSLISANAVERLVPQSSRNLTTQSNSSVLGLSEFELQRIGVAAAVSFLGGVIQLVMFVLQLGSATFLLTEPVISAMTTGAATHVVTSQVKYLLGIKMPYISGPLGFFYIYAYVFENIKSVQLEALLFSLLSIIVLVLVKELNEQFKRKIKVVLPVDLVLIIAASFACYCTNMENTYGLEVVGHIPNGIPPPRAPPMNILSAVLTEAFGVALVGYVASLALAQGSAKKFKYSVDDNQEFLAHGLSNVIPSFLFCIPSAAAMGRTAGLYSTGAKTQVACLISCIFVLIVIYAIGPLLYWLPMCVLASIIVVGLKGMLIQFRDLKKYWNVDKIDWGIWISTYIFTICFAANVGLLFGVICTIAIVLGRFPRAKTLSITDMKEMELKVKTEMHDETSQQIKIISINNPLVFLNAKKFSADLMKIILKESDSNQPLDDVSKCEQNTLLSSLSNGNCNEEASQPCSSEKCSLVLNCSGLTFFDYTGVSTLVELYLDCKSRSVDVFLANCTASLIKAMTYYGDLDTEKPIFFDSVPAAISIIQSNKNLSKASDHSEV
Assay: whole-cell patch clamp, wild-type versus Slc26a7 knockout native epithelial cells
Assay type: cell-based
Settings: NMDG-Cl pipette, NO3-rich versus Cl-rich bath, +80 mV, pH 7.3, 37 °C; native cells with other anion channels present

SMILES: O=[N+]([O-])O [NO3 ^−]
- whole-cell patch clamp, wild-type versus Slc26a7 knockout native epithelial cell: elevated NO3 ^− current in wild-type cells being mediated by the Slc26a7 Cl^− channel
